The source of these data is PMC8067507, “Aryl Urea Based Scaffolds for Multitarget Drug Discovery in Anticancer Immunotherapies” (Pharmaceuticals, 2021).

A value given as a limit tells only on which side of the number the result lay.

The first assay relates to HMEC-1 (human microvascular endothelial cells). Kind of assay: Cell proliferation assay (MTT). Type of assay: cell-based. The settings on record: HMEC-1, 48 h, 2 days incubation, average ± SD of three experiments. An excerpt: (§1) The ability of Ureas 13–33 to inhibit cell proliferation was established by means of their IC50 values towards the human tumor cell lines HT-29 (colon adenocarcinoma), MCF-7 (breast adenocarcinoma), HeLa (epithelioid cervix carcinoma) and A549 (pulmonary adenocarcinoma), as well as towards the endothelial cell line HMEC-1 (human microvascular endothelial cells) and the non-tumor cell line HEK-293 (human embryonic kidney cells).
(§2) HT-29, MCF-7, HeLa, A549 and HEK-293 cell lines were maintained in Dulbecco’s modified Eagle’s medium (DMEM) containing glucose (1 g/L), glutamine (2 mM), penicillin (50 μg/mL), streptomycin (50 μg/mL), and amphotericin B (1.25 μg/mL), supplemented with 10% FBS. HMEC-1 cell line was maintained in Dulbecco’s modified Eagle’s medium (DMEM)/low glucose containing glutamine (2 mM), penicillin (50 μg/mL), streptomycin (50 μg/mL), and amphotericin B (1.25 μg/mL), supplemented with 10% FBS. For the development of tube formation assays in Matrigel, HMEC-1 cells were cultured in EGM-2MV Medium supplemented with EGM-2MV SingleQuots.
(§3) In 96-well plates, 3 × 10^3 (HeLa, A549, HMEC-1, HEK-293) or 5 × 10^3 (HT-29, MCF-7) cells per well were incubated with serial dilutions of the tested compounds in a total volume of 100 μL of their respective growth media. The 3-(4,5-dimethylthiazol-2-yl)-2,5-diphenyltetrazolium bromide (MTT; Sigma Chemical Co.) dye reduction assay in 96-well microplates was used. After 2 days of incubation (37 °C, 5% CO2 in a humid atmosphere), 10 μL of MTT (5 mg/mL in phosphate-buffered saline, PBS) was added to each well, and the plate was incubated for a further 3 h (37 °C). After that, the supernatant was discarded and replaced by 100 µL of DMSO to dissolve formazan crystals. The absorbance was then read at 540 nm by spectrophotometry. For all concentrations of compound, cell viability was expressed as the percentage of the ratio between the mean absorbance of treated cells and the mean absorbance of untreated cells. Three independent experiments were performed, and the IC50 values (i.e., concentration half inhibiting cell proliferation) were graphically determined using GraphPad Prism 4 software.
The term IC50 denotes the concentration needed to halve the response being measured. Regarding `COc1ccc(/C=C\c2cccc(NC(=O)Nc3ccccc3)c2)cc1` [Compound 13], half-maximal inhibition (IC50) required 40 ± 5 µM.
On the same count and under the same terms, the same measure for `COc1ccc(CCc2cccc(NC(=O)Nc3ccccc3)c2)cc1` [Compound 27]: 9 ± 4 µM; for `COc1ccc(CCc2cccc(NC(=O)Nc3ccccc3OC)c2)cc1` [Compound 31]: above 100 µM.
The molecule `COc1ccc(CCc2cccc(NC(=O)Nc3ccccc3Br)c2)cc1` [Compound 28] registered an IC50 of 5 ± 3 µM.
On the same count and under the same terms, under `COc1ccc(/C=C\c2cccc(NC(=O)Nc3ccccc3Br)c2)cc1` [Compound 14] stands 14 ± 2 µM; under `COc1ccc(CCc2cccc(NC(=O)Nc3cccc(Br)c3)c2)cc1` [Compound 29], 3.8 ± 0.3 µM; under `COc1ccc(/C=C/c2cccc(NC(=O)Nc3ccccc3)c2)cc1` [Compound 20], 4 ± 1 µM.
Same read-out and setting: under `COc1ccc(/C=C/c2cccc(NC(=O)Nc3ccccc3OC)c2)cc1` [Compound 24] stands 7.2 ± 0.6 µM.

Another assay deals with A549 (pulmonary adenocarcinoma). Kind of assay: Cell proliferation assay (MTT). Format: cell-based. The settings on record: Homo sapiens, A549, 48 h, 2 days incubation, average ± SD of three experiments.
Source text: as §1, §2, §3
For `COc1ccc(/C=C\c2cccc(NC(=O)Nc3ccccc3)c2)cc1` [Compound 13], inhibition was half-maximal at 34 ± 2 µM (IC50).
Molecule `COc1ccc(CCc2cccc(NC(=O)Nc3ccccc3)c2)cc1` [Compound 27] gave an IC50 of 12 ± 5 µM.
Same read-out and setting: the same measure for `COc1ccc(CCc2cccc(NC(=O)Nc3ccccc3OC)c2)cc1` [Compound 31]: 24 ± 5 µM.
Still for that read-out and setting: under `COc1ccc(CCc2cccc(NC(=O)Nc3ccccc3Br)c2)cc1` [Compound 28] stands 7 ± 4 µM; under `COc1ccc(/C=C\c2cccc(NC(=O)Nc3ccccc3Br)c2)cc1` [Compound 14], 32 ± 14 µM.
`COc1ccc(CCc2cccc(NC(=O)Nc3cccc(Br)c3)c2)cc1` [Compound 29]: the 50% inhibitory concentration (IC50) was found to be 13 ± 3 µM.
The same measure, in the same setting: the same measure for `COc1ccc(/C=C/c2cccc(NC(=O)Nc3ccccc3)c2)cc1` [Compound 20]: 1.6 ± 0.3 µM; for `COc1ccc(/C=C/c2cccc(NC(=O)Nc3ccccc3OC)c2)cc1` [Compound 24]: 11 ± 5 µM.

For another assay, the system named is HEK-293 (human embryonic kidney cells). Kind of assay: Cell proliferation assay (MTT). Type of assay: cell-based. The following applies: HEK293, 48 h, 2 days incubation, average ± SD of three experiments.
Source text: as §1, §2, §3
As to `COc1ccc(/C=C\c2cccc(NC(=O)Nc3ccccc3)c2)cc1` [Compound 13], inhibition was half-maximal at 16 ± 3 µM (IC50).
`COc1ccc(CCc2cccc(NC(=O)Nc3ccccc3)c2)cc1` [Compound 27]: the IC50 was determined as 12.5 ± 0.2 µM.
Same read-out and setting: under `COc1ccc(CCc2cccc(NC(=O)Nc3ccccc3OC)c2)cc1` [Compound 31] stands 13.8 ± 0.8 µM; under `COc1ccc(CCc2cccc(NC(=O)Nc3ccccc3Br)c2)cc1` [Compound 28], 1.7 ± 0.2 µM; under `COc1ccc(/C=C\c2cccc(NC(=O)Nc3ccccc3Br)c2)cc1` [Compound 14], 25 ± 3 µM.
Molecule `COc1ccc(CCc2cccc(NC(=O)Nc3cccc(Br)c3)c2)cc1` [Compound 29] displayed a half-inhibitory concentration (IC50) of 7.2 ± 0.4 µM.
Still for that read-out and setting: the same measure for `COc1ccc(/C=C/c2cccc(NC(=O)Nc3ccccc3)c2)cc1` [Compound 20]: 15 ± 2 µM; for `COc1ccc(/C=C/c2cccc(NC(=O)Nc3ccccc3OC)c2)cc1` [Compound 24]: 3.5 ± 0.8 µM.

The test system of another assay is HT-29 (colon adenocarcinoma). Kind of assay: Cell proliferation assay (MTT). Format: cell-based. The settings on record: Homo sapiens, HT-29, 48 h, 2 days incubation, average ± SD of three experiments.
Source text: as §1, §2, §3
Molecule `COc1ccc(/C=C\c2cccc(NC(=O)Nc3ccccc3)c2)cc1` [Compound 13] registered an IC50 of 24 ± 5 µM.
Same read-out and setting: the same measure for `COc1ccc(CCc2cccc(NC(=O)Nc3ccccc3)c2)cc1` [Compound 27]: 9.6 ± 0.6 µM; for `COc1ccc(CCc2cccc(NC(=O)Nc3ccccc3OC)c2)cc1` [Compound 31]: 57 ± 6 µM; for `COc1ccc(CCc2cccc(NC(=O)Nc3ccccc3Br)c2)cc1` [Compound 28]: 7.9 ± 0.5 µM.
The same measure, in the same setting: the same measure for `COc1ccc(/C=C\c2cccc(NC(=O)Nc3ccccc3Br)c2)cc1` [Compound 14]: 17 ± 2 µM; for `COc1ccc(CCc2cccc(NC(=O)Nc3cccc(Br)c3)c2)cc1` [Compound 29]: 11 ± 2 µM.
Same read-out and setting: the same measure for `COc1ccc(/C=C/c2cccc(NC(=O)Nc3ccccc3)c2)cc1` [Compound 20]: 2.5 ± 0.8 µM; for `COc1ccc(/C=C/c2cccc(NC(=O)Nc3ccccc3OC)c2)cc1` [Compound 24]: 11 ± 4 µM.

A further assay relates to MCF-7 (breast adenocarcinoma). Kind of assay: Cell proliferation assay (MTT). Type of assay: cell-based. The following applies: Homo sapiens, MCF7, 48 h, 2 days incubation, average ± SD of three experiments.
Source text: as §1, §2, §3
As for `COc1ccc(/C=C\c2cccc(NC(=O)Nc3ccccc3)c2)cc1` [Compound 13], the midpoint of inhibition, the IC50, lay at 30 ± 7 µM.
For `COc1ccc(CCc2cccc(NC(=O)Nc3ccccc3)c2)cc1` [Compound 27], the IC50 amounted to 12.8 ± 0.9 µM.
For `COc1ccc(CCc2cccc(NC(=O)Nc3ccccc3OC)c2)cc1` [Compound 31], the half-maximal inhibitory concentration (IC50) is 10 ± 5 µM.
`COc1ccc(CCc2cccc(NC(=O)Nc3ccccc3Br)c2)cc1` [Compound 28]: 5 ± 4 µM corresponded to half-maximal inhibition (IC50).
Still for that read-out and setting: under `COc1ccc(/C=C\c2cccc(NC(=O)Nc3ccccc3Br)c2)cc1` [Compound 14] stands 25 ± 10 µM; under `COc1ccc(CCc2cccc(NC(=O)Nc3cccc(Br)c3)c2)cc1` [Compound 29], 10 ± 4 µM; under `COc1ccc(/C=C/c2cccc(NC(=O)Nc3ccccc3)c2)cc1` [Compound 20], 2.3 ± 0.9 µM.
Same read-out and setting: the same measure for `COc1ccc(/C=C/c2cccc(NC(=O)Nc3ccccc3OC)c2)cc1` [Compound 24]: 3.6 ± 0.6 µM.

In a further assay the test system is HeLa (epithelioid cervix carcinoma). Put plainly: Cell proliferation assay (MTT). Format: cell-based. The settings on record: Homo sapiens, 48 h, 2 days incubation, average ± SD of three experiments.
Source text: as §1, §2, §3
Consider `COc1ccc(/C=C\c2cccc(NC(=O)Nc3ccccc3)c2)cc1` [Compound 13], for which inhibition was half-maximal at 32 ± 8 µM (IC50).
The same measure, in the same setting: the same measure for `COc1ccc(CCc2cccc(NC(=O)Nc3ccccc3)c2)cc1` [Compound 27]: 10 ± 2 µM.
On the same count and under the same terms, under `COc1ccc(CCc2cccc(NC(=O)Nc3ccccc3OC)c2)cc1` [Compound 31] stands 24 ± 2 µM; under `COc1ccc(CCc2cccc(NC(=O)Nc3ccccc3Br)c2)cc1` [Compound 28], 4 ± 3 µM.
`COc1ccc(/C=C\c2cccc(NC(=O)Nc3ccccc3Br)c2)cc1` [Compound 14] gave a 50% inhibitory concentration (IC50) of 26 ± 3 µM.
Still for that read-out and setting: under `COc1ccc(CCc2cccc(NC(=O)Nc3cccc(Br)c3)c2)cc1` [Compound 29] stands 10.7 ± 0.5 µM.
The same measure, in the same setting: the same measure for `COc1ccc(/C=C/c2cccc(NC(=O)Nc3ccccc3)c2)cc1` [Compound 20]: 42 ± 8 µM.
On the same count and under the same terms, the same measure for `COc1ccc(/C=C/c2cccc(NC(=O)Nc3ccccc3OC)c2)cc1` [Compound 24]: 9 ± 4 µM.
